Test results published in patent US9718823B2, “2, 6-Di-nitrogen-containing substituted purine derivative, and preparation method, pharmaceutical composition and use thereof” (Zhejiang Medicine Co., Ltd. Xinchang Pharmaceutical Factory, priority 2013, dated 2017).
Structures can show the parent of a compound that is named as a salt.

What was measured:
[1] = system: PC-3 human prostate cancer cell strain; assay: Antitumor cell proliferation in vitro, CCK-8 detection kit, PC-3; format: cell-based; details: Homo sapiens, PC-3, 72 h, PC-3 cells, 1st and 2nd test where printed
Description: The half inhibitory concentration IC50 of proliferation of three kinds of tumor cell strain (U87MG, PC-3, BT474) for 12 candidate compounds of the present invention is detected by CCK-8 detection kits.
PC-3 human prostate cancer cell strain (cell bank of Chinese Academy of Sciences)
The studied compounds are dissolved by DMSO to make the final concentration 10 mM.
• a) Collecting the cells in logarithmic phase, counting, and resuspending the cells with complete medium. • b) Adjusting the concentration of cells to a suitable concentration, inoculating in 96 well plates, each well is inoculated to 100 μl cell suspension.
c) incubating cells for 24 hours in a 5% CO2 incubator at temperature of 37° C., under the condition of 100% relative humidity.
a) The cells in logarithmic phase is collected, counted, resuspended with complete medium. The concentration of cells is adjusted to a suitable concentration (determined in accordance with the optimizable test results of cell density), and the cells is inoculated in 96 well plates, wherein each well is inoculated 100 μl cell suspension, Cells are incubated for 24 hours in 5% CO2 incubator at temperature of 37° C. under the condition of 100% relative humidity.
b) The test compounds are diluted to 500 μM with culture medium, then diluted in series eight times. […] as 25 μl/well. The final concentrations of the compounds are diluted from 100 μM to 0 μM, with 4 times dilution, and there are a total of 10 concentration points.
c) Cells are incubated for 72 hours in 5% CO2 incubator at temperature of 37° C. under the condition of 100% relative humidity.
d) The culture medium is aspirated and discarded, and complete medium containing 10% CCK-8 is incubated in a incubator at 37° C. for 2˜4 hours.
e) After shocking gently, the absorbance of the culture medium is measured at 450 nm wavelength on SpectraMax M5 Microplate Reader, with the absorbance at 650 nm as reference, to calculate the inhibition rate.

PI3K α = molecular target: T1, PI3K α (Homo sapiens, UniProt P42336); assay: Inhibitory activity to PI3K α, PI 3-Kinase (human) HTRF Assay kit; format: biochemical; details: read-out: % Inhibition Rate to PI3K α
T1 construct: purchased Millipore 14-602
Method in brief: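 HTRF assay using human PI3Kα at 8 ng/well, 100 μM ATP and PIP2 (2× working stock 20 μM) in 20 μL reaction containing 1% DMSO. Screened at 10 μM and 1 μM for percent inhibition, with selected compounds then taken to IC50 determination.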

[2] = system: PC-3 cell Akt (Ser473) phosphorylation; assay: Inhibition of phosphorylation level of PC-3 cell Akt (Ser473), Cisbio HTRF phospho Akt (Ser473) cell-based assay; design: species or system human; details: hEGF 100 ng/ml stimulation, 1st and 2nd test where printed
Description: The inhibitory activity of the compounds of present invention to the phosphorylation level of PC-3 cell Akt (Ser473) is studied by using Cisbio HTRF phospho Akt (Ser473) cell-based assay test kit.
Cell strain: PC-3 prostate cancer cells line (cell bank of Chinese Academy of Sciences) is cultured by using culture medium (F12K+10% FBS).
hEGF is prepared as stock solution of 100 ug/ml with 10 mM acetic acid, and the stock solution is diluted to 200 ng/ml with serum-free medium, added 50 ul to each well to be stimulated.
b) Preparation of Complete Lysate • 4×Lysis Buffer is diluted 4 times with ddH2O to prepare 1×Lysis Buffer. • 100×Blocking Reagent is diluted 100 times with 1×Lysis Buffer.
c) Preparation of Detection Liquid • 20×Anti-Phospho-Akt is diluted 20 times with Detection Buffer. • 20×Anti-Akt is diluted 20 times with Detection Buffer.
The compounds are diluted with DMSO, and the working concentration of compounds is 100 times of detection concentration.
Cells in logarithmic growth phase are collected, counted, and resuspended with complete culture medium;
The cell concentration is adjusted to appropriate concentration, and cell suspension is inoculated into 96 well plates at 50 μl per well;
Cells are incubated for more than 4 h in the 5% CO2 incubator at temperature of 37° C., relative humidity of 100%;
Cell plate is removed from the incubator. The cell suspension is aspirated gently, and 50 ul serum-free F12K medium is quickly added, then the cell plate is placed into the incubator to culture overnight.
The compounds are diluted in a linear gradient with DMSO.
0.5 ul compounds is added into the test well, mixed on oscillators, and incubated at room temperature for 2 hours.
Proportioned hEGF solution is added to test well at 50 μl per well, and the final concentration is 100 ng/ml. serum-free medium is added into The negative control well at 50 μl per well.
The solution is mixed on oscillator and incubated at room temperature for 2 hours.
The liquid in 96 well plates is aspirated by multichannel pipette or the supernatant is discarded gently. The proportioned complete lysate is added quickly at 50 μl per well.
The solution is mixed on oscillator and lysed at room temperature for 30 min.
16 μl cell lysate is transferred from the 96 well plates to white low volume 384 well plates, and the proportioned two pairs of detection antibody are added. The solution is mixed on oscillator, and incubated at room temperature for 4 hours to detect the readings.

T1 sequence (P42336 whole entry): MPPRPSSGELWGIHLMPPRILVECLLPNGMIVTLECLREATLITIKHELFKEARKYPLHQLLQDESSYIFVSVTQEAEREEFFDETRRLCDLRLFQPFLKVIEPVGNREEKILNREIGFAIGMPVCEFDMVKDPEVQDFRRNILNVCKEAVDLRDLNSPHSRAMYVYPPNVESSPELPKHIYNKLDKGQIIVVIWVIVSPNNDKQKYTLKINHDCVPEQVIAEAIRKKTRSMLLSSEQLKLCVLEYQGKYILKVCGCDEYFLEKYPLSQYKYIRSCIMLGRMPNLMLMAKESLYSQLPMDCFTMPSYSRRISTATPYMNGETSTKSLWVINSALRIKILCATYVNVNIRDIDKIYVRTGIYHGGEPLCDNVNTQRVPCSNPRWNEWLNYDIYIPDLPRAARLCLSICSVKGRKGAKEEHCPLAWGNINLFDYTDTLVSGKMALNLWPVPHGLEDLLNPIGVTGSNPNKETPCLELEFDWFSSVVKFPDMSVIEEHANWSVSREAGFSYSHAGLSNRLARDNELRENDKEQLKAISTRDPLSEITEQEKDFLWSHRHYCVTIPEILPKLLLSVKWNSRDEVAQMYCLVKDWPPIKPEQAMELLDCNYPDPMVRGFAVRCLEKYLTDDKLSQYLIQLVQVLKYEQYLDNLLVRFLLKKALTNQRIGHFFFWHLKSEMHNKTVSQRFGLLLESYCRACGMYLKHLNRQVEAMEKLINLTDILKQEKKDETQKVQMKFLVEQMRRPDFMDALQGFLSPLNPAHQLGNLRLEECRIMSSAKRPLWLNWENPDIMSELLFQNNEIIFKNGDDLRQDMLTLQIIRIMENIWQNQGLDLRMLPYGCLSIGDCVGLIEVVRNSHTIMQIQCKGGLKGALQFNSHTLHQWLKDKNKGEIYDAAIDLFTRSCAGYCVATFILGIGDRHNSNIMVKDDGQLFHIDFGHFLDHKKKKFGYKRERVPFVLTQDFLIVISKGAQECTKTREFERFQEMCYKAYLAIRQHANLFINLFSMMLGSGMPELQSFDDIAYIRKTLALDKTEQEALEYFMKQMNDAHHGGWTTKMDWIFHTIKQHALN
T1 sequence (P27986 whole entry partner): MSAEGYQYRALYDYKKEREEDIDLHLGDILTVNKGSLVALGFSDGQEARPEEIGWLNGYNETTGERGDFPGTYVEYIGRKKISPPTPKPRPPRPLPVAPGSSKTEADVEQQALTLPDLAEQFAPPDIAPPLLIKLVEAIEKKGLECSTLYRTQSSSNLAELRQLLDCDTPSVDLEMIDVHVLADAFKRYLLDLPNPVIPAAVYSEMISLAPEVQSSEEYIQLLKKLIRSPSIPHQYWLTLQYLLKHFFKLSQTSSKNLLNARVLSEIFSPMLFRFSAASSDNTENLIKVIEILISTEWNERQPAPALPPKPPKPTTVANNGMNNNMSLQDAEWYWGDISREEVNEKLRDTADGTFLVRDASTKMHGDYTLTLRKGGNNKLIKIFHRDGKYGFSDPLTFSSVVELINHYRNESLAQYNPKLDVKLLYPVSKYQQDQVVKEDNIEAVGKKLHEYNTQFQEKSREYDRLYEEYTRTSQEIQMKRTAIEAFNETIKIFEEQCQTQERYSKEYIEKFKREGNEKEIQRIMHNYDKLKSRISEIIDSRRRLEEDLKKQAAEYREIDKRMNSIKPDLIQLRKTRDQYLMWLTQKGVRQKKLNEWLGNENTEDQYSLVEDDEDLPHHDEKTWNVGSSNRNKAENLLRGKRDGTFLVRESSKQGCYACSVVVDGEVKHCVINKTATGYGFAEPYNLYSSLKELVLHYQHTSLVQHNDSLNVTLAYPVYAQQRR

IC50 ([2]; PC-3 cells, dihydrate di-methanesulfonate) [nM]	SMILES	IC50 [1] [nM]	inhibition at 1 µM (PI3K α) [%]	inhibition at 10 µM (PI3K α) [%]	IC50 ([2]; Homo sapiens, PC-3, PC-3 cells) [nM]
74	c1ccc(-c2ccnc3ccc(Nc4nc(NC5CC5)c5nc[nH]c5n4)cc23)cc1 [MED1007-91, N6-cyclopropyl-N2-(4-phenylquinoline-6-yl)-9H-purine-2,6-diammonium salt dihydrate di-methanesulfonate]	654	97	124	
	COC[C@H]1OC(=O)c2coc3c2[C@@]1(C)C1=C(C3=O)[C@@H]2CCC(=O)[C@@]2(C)C[C@H]1OC(C)=O [Wortmannin, reference compound]	21600	109	105	7.41
